In US8063079B2, “Cyclopropyl compounds” (Eli Lilly and Company, priority 2008, dated 2011):
Where “and” joins values, the source holds several entries; their conditions need not be identical. Identical values can stand only once.

Key:
human islet GK isoform = biological target: T1, human islet GK isoform (Homo sapiens, UniProt P35557); assay: Glucokinase Assay; assay type: biochemical
T1 construct: (His)6; made in house; host or cells: E. coli
T1 sequence (P35557 1-465): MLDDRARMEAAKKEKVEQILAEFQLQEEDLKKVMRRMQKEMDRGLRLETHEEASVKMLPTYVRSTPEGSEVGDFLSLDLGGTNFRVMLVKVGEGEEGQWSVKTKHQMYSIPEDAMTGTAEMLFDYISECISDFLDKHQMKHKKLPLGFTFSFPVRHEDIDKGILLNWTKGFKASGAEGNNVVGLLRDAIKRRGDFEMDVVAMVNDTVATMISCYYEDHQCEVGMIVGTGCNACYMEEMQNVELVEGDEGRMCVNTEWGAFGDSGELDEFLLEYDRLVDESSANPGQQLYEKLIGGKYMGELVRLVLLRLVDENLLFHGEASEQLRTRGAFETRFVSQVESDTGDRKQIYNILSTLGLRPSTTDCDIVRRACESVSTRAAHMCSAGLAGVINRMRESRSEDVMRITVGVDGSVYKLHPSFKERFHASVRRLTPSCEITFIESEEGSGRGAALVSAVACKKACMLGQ
Description: The human islet GK isoform is expressed in E. coli as (His)6-tagged fusion protein and purified with metal chelate affinity chromatography, see e.g. Tiedge et al., Biochem. Biophys. Acta 1337, 175-190, 1997. After purification the enzyme is stored in aliquots at concentration 0.8 mg/ml in 25 mM sodium phosphate, 150 mM sodium chloride, 100 mM imidazole, 1 mM dithiothreitol, 50% glycerol at −80° C. The assay is performed in flat bottom 96-well plates in a final incubation volume of 100 μL. The incubation mixture consists of 25 mM 4-(2-hydroxyethyl)-1-piperazineethanesulfonic acid (HEPES) (pH7.4), 50 mM potassiumchloride, 2.5 mM magnesiumchloride, 2 mM dithiothreitol, 4 U/ml glucose-6-phosphate dehydrogenase from Leuconostoc mesenteroides, 5 mM ATP, 1 mM NAD and a set concentration of glucose. Test compounds are dissolved in dimethylsulfoxide and then added to the reaction mixture giving the final dimethylsulfoxide concentration of 10%. The reaction is initiated by addition of 20 μL GK and run for 20 min at 37° C. The amount of formed NADH is measured as an increase in absorbance at 340 nm using a microplate reader. Absorbance values are used for EC50 calculations.

[1] = system: Rat insulinoma INS-1E cells; assay: Glycolysis Assay; assay type: cell-based; settings: INS1-E cells, 8 mM glucose, n=4, read-out: mean EC50 of stimulation of glucose metabolism
Description: Rat insulinoma INS-1E cells are maintained at 37° C., 5% CO2, 95% humidity in 1640 medium supplemented with 11 mM glucose, 5% Fetal Bovine Serum, 50 μM 2-Mercaptoethanol, 1 mM pyruvate, 10 mM HEPES and antibiotics. Prior to assay, cells are trypsinized, pelleted by centrifugation and seeded into 96-well tissue culture assay plates at the density of 30,000 cells/well. Cells are allowed to attach and incubated for 48 hours at 37° C., 5% CO2. On the assay day, cells are washed with and incubated in 200 μL Earle's Balanced Salt Solution (EBSS) buffer supplemented with 0.1% Bovine Serum Albumin (BSA). After 30 minutes incubation, the buffer is removed and 100 μL EBSS buffer containing 0.1% BSA, 8 mM glucose and the compound is added to cells. Immediately after, 20 μL of CellTiter 96® AQueous One Solution Reagent is added to cells and cells are incubated at 37° C. for an additional hour. At the end of incubation absorbance at 490 nm is read. Absorbance values are used for EC50 calculations.

[2] = system: plasma glucose in male Wistar rats; assay: Oral Glucose Tolerance Test (OGTT); assay type: in vivo, rat
Description: Male Wistar rats at a weight of 225-250 g, are kept on regular diet and with normal light cycle and conditions. For the study, rats are fasted overnight before their exact weights are measured, and are randomized into groups of similar weights (n=4 per group). The compound is suspended in a 1:1 mixture of solutol/ethanol in a bath sonicator (10% of total volume). The obtained suspension is then diluted with 9 volumes of 10% aqueous solutol solution, and the compound is dosed orally at 1, 3, 6, 10, 20, and 30 mg/kg orally. Rats are given a 2 g/kg oral glucose bolus 2 hours after compound administration. Blood is collected via tail bleed at 0, 15, 30, 60, 90 and 120 minutes post glucose administration. Collected blood is placed into ethylenediaminetetraacetic acid (EDTA) tubes at volume of 400 μL per sample, and the samples are kept on ice. Plasma is isolated and stored at −20° C. until samples are analyzed for glucose and compound exposure. Area under the plasma glucose curve (glucose AUC) is calculated for each group and the percentage decrease in the glucose AUC versus the control group is used as a measure of efficacy of the compound to decrease plasma glucose.

[3] = Blood Brain Barrier Permeability; assay type: in vivo, mouse; settings: male CF-1 mice, IV bolus 2.17 μmole/kg, five minutes post dose
Description: A stock compound solution is prepared in dimethylsulfoxide at 10 mM. A dose solution is then prepared at 1 mM by diluting 100 μL of the stock with 900 μL of propylene glycol. The dose is administered as an IV bolus (2.2 mL/kg) via the tail vein into six male CF-1 mice (approximately 23 g) for a target dose of 2.17 μmole/kg. Mice are euthanized using both CO2 and cervical dislocation. Three mice are sacrificed 5 minutes post dose and three 60 minutes post dose. Blood is collected from each animal via cardiac puncture, and plasma is prepared using sodium EDTA, transferred into polypropylene sample tubes and immediately frozen using dry ice. […]
MS/MS is effected using a Sciex API 4000 triple quadrupole mass spectrometer equipped with a turbo ion spray source. […] Column effluent is diverted to waste from 0-2.8 minutes and then directed into the mass spectrometer from 2.8-4.0 minutes MS/MS transitions monitored are 560/84. Quantitation of compound in test samples is achieved by comparing peak area values to a quadratic equation weighted 1/x^2 derived from the nominal concentrations of the calibration standards and their respective peak areas. Upper and Lower Limits of Quantitation are determined by the back calculated recoveries of calibration standards that exceeded +/−20% of theory. […]

EC50 (human islet GK isoform; 10 mM glucose, n=5, read-out: EC50 of GK activation): 42 ± 42 nM
EC50 [1]: 579 ± 139 nM
mean total brain level [3]: 0.539 nmol/g
Kp at 5 min ([3]; mouse, brain/plasma, read-out: mean brain/plasma ratio): 0.17
SMILES: O=C(Nc1ncc(SCCN2CCCC2)s1)[C@]1(c2ccc(S(=O)(=O)C3CC3)cc2)C[C@H]1C1CCCCC1 [Example 1, (1R,2S)-2-Cyclohexyl-1-(4-cyclopropanesulfonyl-phenyl)-cyclopropanecarboxylic acid [5-(2-pyrrolidin-1-yl-ethylsulfanyl)-thiazol-2-yl]-amide]
enzyme activity at lower glucose concentrations (human islet GK isoform; lower glucose concentrations): increased the enzyme activity in a concentration dependent manner
maximal lowering of glucose AUC versus the untreated control group ([2]; 30 mg/kg oral, 2 g/kg oral glucose bolus 2 hours after compound): 42%
average compound concentration in plasma at which a 20% glucose AUC decrease occurs ([2]; interpolation of the data): 99 ng/ml and 179 nM
compound dose corresponding to a 20% glucose AUC decrease ([2]; interpolation of the data, oral): 6.9 mg/kg
effect on plasma glucose ([2]; oral 1-30 mg/kg, fasted and postprandial glucose levels): decreases plasma glucose in a dose-dependent manner
